As usually defined, the melting point is the temperature, or range, at which the solid turns liquid. `CC1(C)OC(=S)Nc2ccc(Br)cc21` [Example 10, 6-Bromo-4,4-dimethyl-1,4-dihydro-benzo[d][1,3]oxazin-2-thione] came in with a melting point of 221 to 222.5 °C.

`CC1OC(=S)Nc2ccc(-c3cccc(F)c3)cc21` (stereo not shown) [Example 15, 6-(3-fluorophenyl)-4-methyl-1,4-dihydro-2H-3,1-benzoxazine-2-thione] returned a melting point of 173 to 174 °C.

With `CC(C)(C)OC(=O)n1c(C#N)ccc1-c1ccc2c(c1)C(C)(C)OC(=S)N2` [Example 17, tert-Butyl 2-cyano-5-(4,4-dimethyl-2-thioxo-1,4-dihydro-2H-3,1-benzoxazin-6-yl)-1H-pyrrole-1-carboxylate], the melting point fell in the range of 165 to 167 °C.

In the case of `CC1(C)OC(=S)Nc2ccc(-c3ccc(C#N)[nH]3)cc21` [Example 18, 5(4,4-Dimethyl-2-thioxo-1,4-dihydro-2H-3,1-benzoxazin-6-yl)-1H-pyrrole-2-carbonitrile], the melting point fell in the range of 261 to 262 °C.

The molecule `CC1(C)OC(=S)Nc2ccc(-c3cccc(CC#N)n3)cc21` [Example 19, [6-(4,4-dimethyl-2-thioxo-1,4-dihydro-2H-3,1-benzoxazin-6-yl)pyridin-2-yl]acetonitrile] came in with a melting point of 215 to 217 °C.

`CC1(C)OC(=S)Nc2ccc(-c3cc(C#N)cs3)cc21` [Example 22, 5-(4,4-Dimethyl-2-thioxo-1,4-dihydro-2H-benzo[d][1,3]oxazin-6-yl)thiophene-3-carbonitrile]: the melting point was 258 to 259 °C.

Turning to `N#Cc1cc(-c2ccc3c(c2)C2(CCCCC2)OC(=S)N3)cs1` [Example 23, 4-(1,2-Dihydro-2-thioxospiro[4H-3,1-benzoxazin-4,1-cyclohexan]-6-yl)-2-thiophenecarbonitrile], the melting point lay within 225 to 227 °C.

In turn, `CCn1c(C#N)ccc1-c1ccc2c(c1)C(C)(C)OC(=S)N2` [Example 23, 5-(4,4-dimethyl-2-thioxo-1,4-dihydro-2H-3,1-benzoxazin-6-yl)-1-ethyl-1H-pyrrole-2-carbonitrile] yielded a melting point of 212 to 213 °C.

`CC1(C)OC(=S)Nc2ccc(-c3cncc(Br)c3)cc21` [Example 26, 6-(5Bromopyridin-3-yl)-4,4-dimethyl-1,4-dihydro-2H-3,1-benzoxazine-2-thione]: the melting point was 252 to 253 °C.

`Cc1cc(Br)cc(-c2ccc3c(c2)C(C)(C)OC(=S)N3)c1` [Example 28, 6-(3-Bromo-5-methylphenyl)-4,4-dimethyl-1,4-dihydro-2H-3,1-benzoxazine-2-thione] displayed a melting point of 183 to 184 °C.

For `CC1(C)OC(=S)Nc2ccc(-c3cc(Br)cc(OC(F)(F)F)c3)cc21` [Example 29, 6-(3-Bromo-5trifluoromethoxyphenyl)-4,4-dimethyl-1,4-dihydro-2H-3,1-benzoxazine-2-thione], the melting point lay within 192 to 193 °C.

As for `N#Cc1cc(F)cc(-c2ccc3c(c2)C2(CCCCC2)OC(=S)N3)c1` [Example 30, 3-(1,2-Dihydro-2-thioxospiro[4H-3,1-benzoxazine-4,1-cyclohexan]-6-yl)-5-fluorobenzonitrile], the melting point fell in the range of 235 to 237 °C.

For `Cc1cc(C#N)cc(-c2ccc3c(c2)C(C)(C)OC(=S)N3)c1` [Example 31, 3-(4,4-Dimethyl-2-thioxo-1,4-dihydro-2H-3,1-benzoxazin-6-yl)-5-methylbenzonitrile], the melting point lay within 230 to 231 °C.

`CC1(C)OC(=S)Nc2ccc(-c3cc(Cl)cc(Cl)c3)cc21` [Example 32, 6-(3,5-Dichlorophenyl)-4,4-dimethyl-1,4-dihydro-2H-3,1-benzoxazine-2-thione] gave a melting point of 206 to 208 °C.

Consider `CC1(C)OC(=S)Nc2ccc(-c3ccc(C#N)o3)cc21` [Example 34, 5-(4,4-Dimethyl-2-thioxo-1,4-dihydro-2H-3,1-benzoxazin-6-yl)-2-furonitrile], for which the melting point was 200 °C (dec.).

Turning to `CCC1(CC)OC(=S)Nc2ccc(-c3cccc([N+](=O)[O-])c3)cc21` [Example 35, 4,4Diethyl-6-(3-nitrophenyl)-1,4-dihydro-2H-3,1-benzoxazine2-thione], the melting point lay in the range of 180 to 181 °C.

The molecule `CC1(c2ccccc2)OC(=S)Nc2ccc(-c3cccc(Cl)c3)cc21` (stereo not shown) [Example 36, 6-(3-Chlorophenyl)-4-methyl-4-phenyl-1,4-dihydro-2H-3,1-benzoxazine-2-thione] displayed a melting point of 202 to 203 °C.

Take `C=CCC1(C)OC(=S)Nc2ccc(-c3cccc(Cl)c3)cc21` (stereo not shown) [Example 37, 4-Allyl-6-(3-chlorophenyl)-4-methyl-1,4-dihydro-2H-3,1-benzoxazine2-thione]: the melting point was in the range of 150 to 151 °C.

For `CC1(C)OC(=S)Nc2ccc(-c3cc(Cl)cc(C#N)c3)cc21` [Example 38, 3-Chloro-5-(4,4-dimethyl-2-thioxo-1,4-dihydro-2H-3,1-benzoxazin-6-yl)benzonitrile], the melting point fell in the range of 249 to 251 °C.

Molecule `CC1(C)OC(=S)Nc2ccc(-c3cc(F)cc(F)c3)cc21` [Example 39, 6-(3,5-Difluorophenyl)-4,4-dimethyl-1,4-dihydro-2H-3,1-benzoxazine-2-thione] showed a melting point of 224 to 225 °C.

`COc1cc(F)cc(-c2ccc3c(c2)C(C)(C)OC(=S)N3)c1` [Example 40, 6-(3-Fluoro-5methoxyphenyl)-4,4-dimethyl-1,4-dihydro-2H-3,1-benzoxazine-2-thione] had a melting point of 170 to 171 °C.

For `COc1cc(C#N)cc(-c2ccc3c(c2)C(C)(C)OC(=S)N3)c1` [Example 41, 3-(4,4-Dimethyl-2-thioxo-1,4-dihydro2H-3,1-benzoxazin-6-yl)-5-methoxybenzonitrile], the melting point fell in the range of 201 to 202 °C.

Turning to `CC1(C)OC(=S)Nc2ccc(-c3cccc(F)c3)cc21` [Example 42, 6-(3-Fluorophenyl)-4,4-dimethyl-1,4-dihydro-2H-3,1-benzoxazine-2-thione], the melting point was in the range of 194 to 195 °C.

In turn, `CC1(C)OC(=S)Nc2ccc(-c3ccccc3F)cc21` [Example 44, 6-(2-Fluorophenyl)-4,4-dimethyl-1,4-dihydro-2H-3,1-benzoxazine-2-thione] gave a melting point of 171 to 173 °C.

`CC1(C)OC(=S)Nc2ccc(-c3ccc(F)c(F)c3)cc21` [Example 45, 6-(3,4-Difluorophenyl)-4,4-dimethyl-1,4-dihydro-2H-3,1-benzoxazine-2-thione] had a melting point of 209 to 211 °C.

In turn, `CC1(C)OC(=S)Nc2ccc(-c3ccc(F)cc3)cc21` [Example 46, 6(4-Fluorophenyl)-4,4-dimethyl-1,4-dihydro-2H-3,1-benzoxazine-2-thione] displayed a melting point of 221 to 223 °C.

The molecule `CC1(C)OC(=S)Nc2ccc(-c3cccc(F)c3F)cc21` [Example 48, 6-(2,3-Difluorophenyl)-4,4-dimethyl-1,4-dihydro-2H-3,1-benzoxazine-2-thione] displayed a melting point of 197 to 198 °C.

As for `CC1(C)OC(=S)Nc2c(Br)cc(-c3cc(F)cc(C#N)c3)cc21` [Example 49, 3-(8-Bromo-4,4-dimethyl-2-thioxo-1,4-dihydro-2H-3,1-benzoxazin-6-yl)-5-fluorobenzonitrile], the melting point was in the range of 216 to 217 °C.

Take `CC1(C)OC(=S)Nc2ccc(-c3cccc([N+](=O)[O-])c3)cc21` [Example 50, 4,4-Dimethyl-6-(3-nitrophenyl)-1,4-dihydro-2H-3,1-benzoxazine-2-thione]: the melting point fell in the range of 224 to 226 °C.

Molecule `CCC1(CC)OC(=S)Nc2ccc(-c3cccc(Cl)c3)cc21` [Example 51, 6-(3-Chlorophenyl)-4,4-diethyl-1,4-dihydro-2H-3,1-benzoxazine-2-thione] gave a melting point of 148 to 150 °C.

The molecule `COc1cccc(-c2ccc3c(c2)C(C)(C)OC(=S)N3)c1` [Example 52, 6-(3-Methoxyphenyl)-4,4-dimethyl-1,4-dihydro-2H-3,1-benzoxazine-2-thione] had a melting point of 142 to 143 °C.

Turning to `CC1(C)OC(=S)Nc2ccc(-c3ccccc3Cl)cc21` [Example 53, 6-(2-Chlorophenyl)-4,4-dimethyl-1,4-dihydro-2H-3,1-benzoxazine-2-thione], the melting point lay within 171 to 172 °C.

`CC1(C)OC(=S)Nc2ccc(-c3cc(F)cc(Br)c3)cc21` [Example 55, 6-(3-Bromo-5-fluorophenyl)-4,4-dimethyl-1,4-dihydro-2H-3,1-benzoxazine-2-thione] gave a melting point of 221 to 222 °C.

Molecule `CC1(C)OC(=S)Nc2ccc(-c3ccc(C#N)s3)cc21` [Example 56, 5-(4,4-Dimethyl-2-thioxo-1,4-dihydro-2H-3,1-benzoxazin-6-yl)thiophene-2-carbonitrile] showed a melting point of 242 to 244 °C.

`N#Cc1cccc(-c2ccc3c(c2)C2(CCCCC2)OC(=S)N3)c1` [Example 58, 3(1,2-Dihydro-2-thioxospiro[4H-3,1-benzoxazine4,1-cyclohexan]-6-yl)benzonitrile] registered a melting point of 222 to 224 °C.

Molecule `Cc1cc(C#N)sc1-c1ccc2c(c1)C1(CCCCC1)OC(=S)N2` [Example 59, 5-(1,2-Dihydro-2-thioxospiro [4H-3,1-benzoxazine-4,1-cyclohexan]-6-yl)-4-methyl-2-thiophenecarbonitrile] yielded a melting point of 199 to 201 °C.

Molecule `N#Cc1ccc(-c2ccc3c(c2)C2(CCCCC2)OC(=S)N3)s1` [Example 60, 5-(1,2-Dihydro-2-thioxospiro[4H-3,1-benzoxazine-4,1-cyclohexan]-6yl)-2-thiophenecarbonitrile] showed a melting point of 232 to 233 °C.

For `CC1(C)OC(=S)Nc2ccc(-c3ccc(F)c(Cl)c3)cc21` [Example 61, 6-(3-Chloro-4-fluorophenyl)-4,4-dimethyl-1,4-dihydro-2H-3,1-benzoxazine-2-thione], the melting point lay within 196 to 197 °C.

In turn, `CCCc1cc(C#N)sc1-c1ccc2c(c1)C(C)(C)OC(=S)N2` [Example 62, 5-(4,4-Dimethyl-2-thioxo-1,4-dihydro-2H-3,1-benzoxazin6-yl)-4-propylthiophene2-carbonitrile] showed a melting point of 174 to 175 °C.

Take `CC1(C)OC(=S)Nc2ccc(-c3coc(C#N)c3)cc21` [Example 63, 4-(4,4-Dimethyl-2-thioxo-1,4-dihydro-2H-3,1-benzoxazin-6-yl)-2-furonitrile]: the melting point lay within 214 to 216 °C.

(Values after patent US6436929B1 (Wyeth, priority 1999, dated 2002).)
